Assay results taken from patent US10781224B2, “Bis(oxymethyl)phosphinic acid and biogenic metal salts thereof as regulators of plant growth and development” (priority 2016, dated 2020).

Legend:
Type in all cases: in vivo
[1] = test system: winter wheat (Vershin variety); experiment: Winter wheat seed treatment with BHMPA salts: germination energy and germination rate
Description: (§1) Control—Soaking Seeds in Water;
(§2) Experimental versions—soaking seeds in BHMPA solutions and solutions of BHMPA Ca, Mg, Na, Co, Mn, Cu, and Zn salts at 1·10^−6-1·10^−12% concentrations (doses). The studies were conducted in laboratory in Petri dishes; seed bed—two layers of filter paper. 50 seeds soaked in water (control) and in the solutions of the tested compounds (experimental) were placed into each dish. Wheat, corn, and rice seeds were exposed for one hour.
(§3) Analysis was conducted according to the government standards GOST 12038-84 “Crop seeds. Technical conditions for determining the germination energy and germination rate”, GOST 12044-93 “Crop seeds. Methods for determining disease contamination.”
(§4) Seed germination energy and rate were calculated in percent as an arithmetic mean of the four experimental results (germination energy on the 4th day, wheat germination on the 8th day, rice and corn germination—on the 7th day). Germination was determined based on the germinating power indicators (length of the roots and sprouts and their wet and dry mass per 100 shoots).
(§5) The effect of pre-sowing seed treatment with the claimed BHMPA salts of biogenic metals was studied on winter wheat (Vershin variety), corn (Krasnodar 385 MV variety), and rice (Diamant variety).

[2] = test system: corn (Krasnodar 385 MV variety); experiment: Corn seed treatment with BHMPA salts: germination energy and germination rate
Description: as §1, §2, §3, §4, §5

[3] = test system: rice (Diamant variety); experiment: Rice seed treatment with BHMPA salts: germination energy and germination rate; conditions: for Germination energy, % / Germination rate, %: rice seed treatment
Description: as §1, §2, §3, §4, §5

[4] = winter wheat Vershin, 1·10^−6% solution
[5] = winter wheat Vershin, 1·10^−7% solution
[6] = winter wheat Vershin, 1·10^−8% solution
[7] = winter wheat Vershin, 1·10^−9% solution
[8] = winter wheat Vershin, 1·10^−10% solution
[9] = winter wheat Vershin, 1·10^−11% solution
[10] = winter wheat Vershin, 1·10^−12% solution
[11] = winter wheat, comparative study vs Melaphen, 1·10^−9% solution
[12] = comparative study vs Melaphen, 1·10^−9% solution
[13] = seed treatment, concentration 1 · 10^−6%
[14] = seed treatment, concentration 1 · 10^−7%
[15] = seed treatment, concentration 1 · 10^−8%
[16] = seed treatment, concentration 1 · 10^−9%
[17] = seed treatment, concentration 1 · 10^−10%
[18] = seed treatment, concentration 1 · 10^−11%
[19] = seed treatment, concentration 1 · 10^−12%
[20] = comparative study vs Melaphen, 1·10^−10% solution

O.O.O=P([O-])(CO)CO.O=P([O-])(CO)CO.[Mn+2] [Mn-salt, Manganese BHMPA Salt]
Germination energy [1, 4]: 72.0%
Germination rate [1, 4]: 69.3%
Germination energy [1, 5]: 73.6%
Germination rate [1, 5]: 76.0%
Germination energy [1, 6]: 77.9%
Germination rate [1, 6]: 82.7%
Germination energy [1, 7]: 85.5%
Germination rate [1, 7]: 88.7%
Germination energy [1, 8]: 83.0%
Germination rate [1, 8]: 85.3%
Germination energy [1, 9]: 76.1%
Germination rate [1, 9]: 78.8%
Germination energy [1, 10]: 71.6%
Germination rate [1, 10]: 74.0%
Germination energy [1, 11]: 88.0%
Germination rate [1, 11]: 93.7%
Germination energy ([2]; 1·10^−6% solution): 81.0%
Germination rate ([2]; 1·10^−6% solution): 83.3%
Germination energy ([2]; 1·10^−7% solution): 82.3%
Germination rate ([2]; 1·10^−7% solution): 85.0%
Germination energy ([2]; 1·10^−8% solution): 84.7%
Germination rate ([2]; 1·10^−8% solution): 87.5%
Germination energy ([2]; 1·10^−9% solution): 87.7%
Germination rate ([2]; 1·10^−9% solution): 88.7%
Germination rate ([2]; 1·10^−9% solution, listed as Mn): 90.0%
Germination energy ([2]; 1·10^−10% solution): 85.0%
Germination rate ([2]; 1·10^−10% solution): 87.5%
Germination energy ([2]; 1·10^−11% solution): 82.7%
Germination rate ([2]; 1·10^−11% solution): 85.3%
Germination energy ([2]; 1·10^−12% solution): 80.3%
Germination rate ([2]; 1·10^−12% solution): 83.0%
Germination energy [2, 12]: 87.3%
Germination rate [2, 12]: 95.0%
Germination energy, % ([3]; solution 1 · 10^−9%): 86.7%
Germination rate, % ([3]; solution 1 · 10^−9%): 93.0%
Germination energy ([3]; rice, 1·10^−9% solution): 85.3%
Germination rate ([3]; rice, 1·10^−9% solution): 91.7%
Germination energy [3, 13]: 77.0%
Germination rate [3, 13]: 82.7%
Germination energy [3, 14]: 79.3%
Germination rate [3, 14]: 85.0%
Germination energy [3, 15]: 82.7%
Germination rate [3, 15]: 86.7%
Germination energy [3, 16]: 85.3%
Germination rate [3, 16]: 91.7%
Germination energy [3, 17]: 83.3%
Germination rate [3, 17]: 88.3%
Germination energy [3, 18]: 81.0%
Germination rate [3, 18]: 86.0%
Germination energy [3, 19]: 78.0%
Germination rate [3, 19]: 83.0%

O=P([O-])(CO)CO.[Na+] [Na-salt, Sodium BHMPA Salt]
Germination energy [1, 4]: 84.4%
Germination rate [1, 4]: 86.0%
Germination energy [1, 5]: 86.7%
Germination rate [1, 5]: 89.0%
Germination energy [1, 6]: 90.2%
Germination rate [1, 6]: 94.0%
Germination energy [1, 7]: 92.3%
Germination rate [1, 7]: 95.3%
Germination energy [1, 8]: 88.4%
Germination rate [1, 8]: 92.0%
Germination energy [1, 9]: 85.0%
Germination rate [1, 9]: 88.0%
Germination energy [1, 10]: 83.2%
Germination rate [1, 10]: 86.3%
Germination energy [1, 11]: 87.3%
Germination rate [1, 11]: 93.7%
Germination energy ([2]; 1·10^−6% solution): 75.7%
Germination rate ([2]; 1·10^−6% solution): 78.3%
Germination energy ([2]; 1·10^−7% solution): 78.0%
Germination rate ([2]; 1·10^−7% solution): 81.8%
Germination energy ([2]; 1·10^−8% solution): 84.8%
Germination rate ([2]; 1·10^−8% solution): 87.5%
Germination energy ([2]; 1·10^−9% solution): 87.7%
Germination rate ([2]; 1·10^−9% solution): 91.7%
Germination energy ([2]; 1·10^−10% solution): 89.7%
Germination rate ([2]; 1·10^−10% solution): 93.0%
Germination energy ([2]; 1·10^−11% solution): 86.8%
Germination rate ([2]; 1·10^−11% solution): 89.5%
Germination energy ([2]; 1·10^−12% solution): 82.0%
Germination rate ([2]; 1·10^−12% solution): 85.5%
Germination energy [2, 20]: 85.7%
Germination rate [2, 20]: 94.0%
Germination energy, % ([3]; solution 1 · 10^−11%): 85.0%
Germination rate, % ([3]; solution 1 · 10^−11%): 92.0%
Germination energy ([3]; rice, 1·10^−11% solution): 84.0%
Germination rate ([3]; rice, 1·10^−11% solution): 90.3%
Germination energy [3, 13]: 74.7%
Germination rate [3, 13]: 80.3%
Germination energy [3, 14]: 76.7%
Germination rate [3, 14]: 82.8%
Germination energy [3, 15]: 78.3%
Germination rate [3, 15]: 84.0%
Germination energy [3, 16]: 80.0%
Germination rate [3, 16]: 86.3%
Germination energy [3, 17]: 82.3%
Germination rate [3, 17]: 88.0%
Germination energy [3, 18]: 84.0%
Germination rate [3, 18]: 90.3%
Germination energy [3, 19]: 79.0%
Germination rate [3, 19]: 85.3%
